Assay results as given in US11000033B2, “Ketone or oxime compound, and herbicide” (NISSAN CHEMICAL CORPORATION, priority 2014, dated 2021).

Assays:
Type in all cases: in vivo
Galium spurium = test: Test Example 5: herbicidal effect by foliage application, plastic box (symbol Q); settings: 320 g/ha, 3 weeks after application
Summary of the method: (§1)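 Leaf-applied emulsion, water-diluted to a preset herbicide dose, on two-week-old seedlings raised in a 25° C. to 30° C. greenhouse; injury rated at 3 weeks using earlier criteria.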

Apera spica-venti = test: Test Example 5: herbicidal effect by foliage application, plastic box (symbol L); settings: 320 g/ha, 3 weeks after application
Summary of the method: as §1

Lolium multiflorum Lam. = test: Test Example 5: herbicidal effect by foliage application, plastic box (symbol K); settings: 320 g/ha, 3 weeks after application
Summary of the method: as §1

Avena fatua = test: Test Example 5: herbicidal effect by foliage application, plastic box (symbol I); settings: 320 g/ha, 3 weeks after application
Summary of the method: as §1

Leptochloa chinensis = test: Test Example 3: herbicidal effect by foliage application, Wagner pot (symbol D); settings: application herbicide amount 320 g/ha
Summary of the method: (§2)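 Foliar spray of a water-diluted emulsion at a predetermined herbicide amount, applied to 14-day-old plants. Seedlings were raised in flooded alluvial soil (0.1–0.5 cm water) at 25–30 °C in a greenhouse. Injury was rated after 3 weeks against fixed criteria.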

wheat = test: Test Example 5: effect on crop by foliage application, plastic box (symbol e); settings: 320 g/ha, 3 weeks after application
Summary of the method: (§3)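 Greenhouse test at 25° C. to 30° C. Seeds of crops and weeds were spot-sown in boxes of sterilized diluvial soil under roughly 1.5 cm soil cover, then grown for foliage treatment.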

[1] = tested on: directly sowed rice plant; test: Test Example 3: effect on crop by foliage application, Wagner pot (symbol b); settings: application herbicide amount 320 g/ha
Summary of the method: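 Plants are raised from seed in flooded paddy conditions: water stands 0.1–0.5 cm over alluvial soil, and the pot is kept in a greenhouse at 25–30 °C. Species sown are barnyardgrass (E. crus-galli var. crus-galli), Leptochloa chinensis, Cyperus difformis and rice.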

Setaria viridis = test: Test Example 5: herbicidal effect by foliage application, plastic box (symbol G); settings: 320 g/ha, 3 weeks after application
Summary of the method: as §1

corn = test: Test Example 5: effect on crop by foliage application, plastic box (symbol c); settings: 320 g/ha, 3 weeks after application
Summary of the method: as §3

Alopecurus myosuroides = test: Test Example 5: herbicidal effect by foliage application, plastic box (symbol J); settings: 320 g/ha, 3 weeks after application
Summary of the method: as §1

Amaranthus retroflexus = test: Test Example 5: herbicidal effect by foliage application, plastic box (symbol N); settings: 320 g/ha, 3 weeks after application
Summary of the method: as §1

rice plant = test: Test Example 5: effect on crop by foliage application, plastic box (symbol b); settings: 320 g/ha, 3 weeks after application
Summary of the method: as §3

Chenopodium album = test: Test Example 5: herbicidal effect by foliage application, plastic box (symbol O); settings: 320 g/ha, 3 weeks after application
Summary of the method: as §1

[2] = tested on: Echinochloa crus-galli var. crus-galli; test: Test Example 3: herbicidal effect by foliage application, Wagner pot (symbol H); settings: application herbicide amount 320 g/ha
Summary of the method: as §2

Abutilon theophrasti = test: Test Example 5: herbicidal effect by foliage application, plastic box (symbol M); settings: 320 g/ha, 3 weeks after application
Summary of the method: as §1

beet = test: Test Example 5: effect on crop by foliage application, plastic box (symbol f); settings: 320 g/ha, 3 weeks after application
Summary of the method: as §3

Veronica persica = test: Test Example 5: herbicidal effect by foliage application, plastic box (symbol R); settings: 320 g/ha, 3 weeks after application
Summary of the method: as §1

Cyperus difformis = test: Test Example 3: herbicidal effect by foliage application, Wagner pot (symbol E); settings: application herbicide amount 320 g/ha
Summary of the method: as §2

Stellaria media = test: Test Example 5: herbicidal effect by foliage application, plastic box (symbol P); settings: 320 g/ha, 3 weeks after application
Summary of the method: as §1

soybean = test: Test Example 5: effect on crop by foliage application, plastic box (symbol d); settings: 320 g/ha, 3 weeks after application
Summary of the method: as §3

[3] = tested on: Echinochloa crus-galli var. crus-galli; test: Test Example 5: herbicidal effect by foliage application, plastic box (symbol H); settings: 320 g/ha, 3 weeks after application
Summary of the method: as §1

rapeseed = test: Test Example 5: effect on crop by foliage application, plastic box (symbol g); settings: 320 g/ha, 3 weeks after application
Summary of the method: as §3

Digitaria ciliaris = test: Test Example 5: herbicidal effect by foliage application, plastic box (symbol F); settings: 320 g/ha, 3 weeks after application
Summary of the method: as §1

SMILES | Q: Galium spurium, herbicidal effect (criteria of Test Example 1) (Galium spurium) | L: Apera spica-venti, herbicidal effect (criteria of Test Example 1) (Apera spica-venti) | K: Lolium multiflorum Lam., herbicidal effect (criteria of Test Example 1) (Lolium multiflorum Lam.) | I: Avena fatua, herbicidal effect (criteria of Test Example 1) (Avena fatua) | herbicidal effect on D (Leptochloa chinensis), grade 0-5 (Leptochloa chinensis) | e: wheat, effect on crop (criteria of Test Example 1) (wheat) | effect on crop b (directly sowed rice plant), grade 0-5 [1] | G: Setaria viridis, herbicidal effect (criteria of Test Example 1) (Setaria viridis) | c: corn, effect on crop (criteria of Test Example 1) (corn) | J: Alopecurus myosuroides, herbicidal effect (criteria of Test Example 1) (Alopecurus myosuroides) | N: Amaranthus retroflexus, herbicidal effect (criteria of Test Example 1) (Amaranthus retroflexus) | b: directly sowed rice plant, effect on crop (criteria of Test Example 1) (rice plant) | O: Chenopodium album, herbicidal effect (criteria of Test Example 1) (Chenopodium album) | herbicidal effect on H (Echinochloa crus-galli var. crus-galli), grade 0-5 [2] | M: Abutilon theophrasti, herbicidal effect (criteria of Test Example 1) (Abutilon theophrasti) | f: beet, effect on crop (criteria of Test Example 1) (beet) | R: Veronica persica, herbicidal effect (criteria of Test Example 1) (Veronica persica) | herbicidal effect on E, grade 0-5 (Cyperus difformis) | P: Stellaria media, herbicidal effect (criteria of Test Example 1) (Stellaria media) | d: soybean, effect on crop (criteria of Test Example 1) (soybean) | other results
CON=C(C)CC1CC(OC)=C(c2c(C)cc(C=Cc3ccccc3)cc2C)C1=O (stereo not shown) [6-068] | 0 (Herbicidal ratio of 5% or lower (almost no effect)) | 0 (Herbicidal ratio of 5% or lower (almost no effect)) | 0 (Herbicidal ratio of 5% or lower (almost no effect)) | 0 (Herbicidal ratio of 5% or lower (almost no effect)) | 2 (Herbicidal ratio of 20% or higher and lower than 40%) | 0 (Herbicidal ratio of 5% or lower (almost no effect)) | 0 (Herbicidal ratio of 5% or lower (almost no effect)) | 3 (Herbicidal ratio of 40% or higher and lower than 70%) | 4 (Herbicidal ratio of 70% or higher and lower than 90%) | 0 (Herbicidal ratio of 5% or lower (almost no effect)) | 0 (Herbicidal ratio of 5% or lower (almost no effect)) | 1 (Herbicidal ratio of 5% or higher and lower than 20%) | 0 (Herbicidal ratio of 5% or lower (almost no effect)) | 0 (Herbicidal ratio of 5% or lower (almost no effect)) | 0 (Herbicidal ratio of 5% or lower (almost no effect)) | 0 (Herbicidal ratio of 5% or lower (almost no effect)) | 0 (Herbicidal ratio of 5% or lower (almost no effect)) | 0 (Herbicidal ratio of 5% or lower (almost no effect)) | 2 (Herbicidal ratio of 20% or higher and lower than 40%) | 0 (Herbicidal ratio of 5% or lower (almost no effect)) | H: Echinochloa crus-galli var. crus-galli, herbicidal effect (criteria of Test Example 1) [3]: 3 (Herbicidal ratio of 40% or higher and lower than 70%); g: rapeseed, effect on crop (criteria of Test Example 1) (rapeseed): 2 (Herbicidal ratio of 20% or higher and lower than 40%); F: Digitaria ciliaris, herbicidal effect (criteria of Test Example 1) (Digitaria ciliaris): 0 (Herbicidal ratio of 5% or lower (almost no effect))
CC(=O)CC1CC(O)=C(c2c(C)cc(-n3ccnc3)cc2C)C1=O (stereo not shown) [7-025] | 0 (Herbicidal ratio of 5% or lower (almost no effect)) | 0 (Herbicidal ratio of 5% or lower (almost no effect)) | 0 (Herbicidal ratio of 5% or lower (almost no effect)) | 0 (Herbicidal ratio of 5% or lower (almost no effect)) | 3 (Herbicidal ratio of 40% or higher and lower than 70%) | 0 (Herbicidal ratio of 5% or lower (almost no effect)) | 0 (Herbicidal ratio of 5% or lower (almost no effect)) | 0 (Herbicidal ratio of 5% or lower (almost no effect)) | 0 (Herbicidal ratio of 5% or lower (almost no effect)) | 0 (Herbicidal ratio of 5% or lower (almost no effect)) | 0 (Herbicidal ratio of 5% or lower (almost no effect)) | 0 (Herbicidal ratio of 5% or lower (almost no effect)) | 0 (Herbicidal ratio of 5% or lower (almost no effect)) | 1 (Herbicidal ratio of 5% or higher and lower than 20%) | 0 (Herbicidal ratio of 5% or lower (almost no effect)) | 0 (Herbicidal ratio of 5% or lower (almost no effect)) | 0 (Herbicidal ratio of 5% or lower (almost no effect)) | 0 (Herbicidal ratio of 5% or lower (almost no effect)) | 0 (Herbicidal ratio of 5% or lower (almost no effect)) | 0 (Herbicidal ratio of 5% or lower (almost no effect)) | H: Echinochloa crus-galli var. crus-galli, herbicidal effect (criteria of Test Example 1) [3]: 0 (Herbicidal ratio of 5% or lower (almost no effect)); g: rapeseed, effect on crop (criteria of Test Example 1) (rapeseed): 0 (Herbicidal ratio of 5% or lower (almost no effect)); F: Digitaria ciliaris, herbicidal effect (criteria of Test Example 1) (Digitaria ciliaris): 3 (Herbicidal ratio of 40% or higher and lower than 70%)
